# According to the supplement of paper PMC10307832:
# Tests used:
# Test in all cases: relative viability (nuclei count vs DMSO), 5 days (fraction); higher = more cells survive
# [1] = compound: CN(C)CC1=CC(=CC=C1)N=C(C2=CC=CC=C2)C3=C(NC4=C3C=CC(=C4)C(=O)N(C)C)O + Cc1cc(Nc2cc(N3CCN(C)CC3)nc(Sc3ccc(NC(=O)C4CC4)cc3)n2)n[nH]1 [Tozasertib] (partner 0.1 µM)
# In short: (§1)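 Nuclei were stained with Hoechst during a one-step fixation (final 0.05% Triton X-100, 1% formaldehyde, 1 ug/ml Hoechst) carried out 5 days after dosing, then counted on 4× images. The cells, lung cancer lines in 1536-well plates, had been dosed by pin tool the day after seeding with one drug alone or a fixed anchor-drug dose plus five library-drug doses (not always all listed) in √10 steps. Relative viability is the nuclei count in treated wells divided by that in vehicle wells, and each value is the median of duplicate plates.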
# [2] = compound: CN(C)CC1=CC(=CC=C1)N=C(C2=CC=CC=C2)C3=C(NC4=C3C=CC(=C4)C(=O)N(C)C)O + NC(=O)Nc1cc(-c2cccc(F)c2)sc1C(=O)N[C@H]1CCCNC1 [AZD7762] (partner 0.2 µM)
# In short: as §1
# [3] = compound: CN(C)CC1=CC(=CC=C1)N=C(C2=CC=CC=C2)C3=C(NC4=C3C=CC(=C4)C(=O)N(C)C)O + Nc1ncn([C@H]2C[C@H](O)[C@@H](CO)O2)c(=O)n1 [Decitabine] (partner 2 µM)
# In short: as §1
# [4] = compound: CN(C)CC1=CC(=CC=C1)N=C(C2=CC=CC=C2)C3=C(NC4=C3C=CC(=C4)C(=O)N(C)C)O + CC(C)C[C@H](NC(=O)[C@H](Cc1ccccc1)NC(=O)c1cnccn1)B(O)O [Bortezomib] (partner 0.002 µM)
# In short: as §1
Cell Line,relative viability ([1]; first compound 0.08 µM),relative viability ([1]; first compound 0.253 µM),relative viability ([1]; first compound 2.53 µM),relative viability ([1]; first compound 8 µM),relative viability ([2]; first compound 0.08 µM),relative viability ([2]; first compound 0.253 µM),relative viability ([2]; first compound 0.8 µM),relative viability ([2]; first compound 2.53 µM),relative viability ([2]; first compound 8 µM),relative viability ([3]; first compound 0.08 µM),relative viability ([3]; first compound 0.253 µM),relative viability ([3]; first compound 0.8 µM),relative viability ([3]; first compound 2.53 µM),relative viability ([3]; first compound 8 µM),relative viability ([1]; first compound 0.8 µM),relative viability ([4]; first compound 0.08 µM),relative viability ([4]; first compound 0.253 µM),relative viability ([4]; first compound 0.8 µM),relative viability ([4]; first compound 2.53 µM),relative viability ([4]; first compound 8 µM)
NCI-H1793,0.305,0.385,0.368,0.347,0.527,0.386,0.407,0.346,0.436,0.53,0.509,0.52,0.49,0.644,–,–,–,–,–,–
NCI-H1395,0.85,0.831,0.746,0.771,0.406,0.343,0.446,0.39,0.42,0.752,0.757,0.759,0.727,0.758,0.789,–,–,–,–,–
NCI-H2170,0.749,0.8,0.679,0.609,0.921,0.88,0.589,0.867,0.682,0.516,0.487,0.452,0.462,0.418,0.586,–,–,–,–,–
NCI-H522,0.544,0.46,0.587,0.62,0.972,0.871,0.855,0.953,0.736,0.672,0.673,0.635,0.597,0.574,0.546,–,–,–,–,–
A549,–,–,–,–,–,–,–,–,–,–,0.286,0.27,0.223,0.246,–,–,–,–,–,–
SW 1573,0.292,0.172,0.176,0.152,–,–,–,–,–,0.496,0.46,0.659,0.562,0.573,0.149,1.04,1.16,1.06,0.946,0.94
NCI-H358,0.105,0.0937,0.096,0.116,0.635,0.463,0.419,0.471,0.485,0.198,0.214,0.212,0.214,0.236,0.0915,–,–,–,–,–
COR-L 105,0.372,0.369,0.346,0.361,–,–,–,–,–,1.12,0.621,0.635,0.667,0.628,0.336,0.767,0.889,0.586,0.761,0.753
Calu-6,–,–,–,–,–,–,–,–,–,–,–,–,–,–,–,1.02,1.06,1.05,1.13,1.06
NCI-H1650,0.352,0.498,0.405,0.343,–,–,–,–,–,0.471,0.376,0.361,0.485,0.452,0.421,0.181,0.22,0.231,0.202,0.222
SK-LU-1,0.262,0.327,0.351,0.295,–,–,–,–,–,0.624,0.653,0.646,0.578,0.677,0.33,0.94,1.17,1.16,1.13,1.01
NCI-H1703,–,–,–,–,0.128,0.126,0.119,0.133,0.0959,–,–,–,–,–,–,0.311,0.307,0.377,0.29,0.207
NCI-H2228,0.221,0.332,0.228,0.232,–,–,–,–,–,–,–,–,–,–,0.265,1.09,1.15,1.11,0.779,0.94
